What was measured:
Assay type in all cases: in vivo, Female Sprague Dawley CD rats
[1] = Change in body weight in ovariectomized rats, daily or once weekly dosing; conditions: ovx rats, 6 weeks
From the text: (§1) The ability of bazedoxifene to be successfully administered on an extended dosing regimen was established in an in vivo standard pharmacological test procedure which evaluated bone mineral density (BMD), change in body weight, and uterine weight using bazedoxifene acetate as a representative compound of this invention. The following briefly describes the procedure used and results obtained in the standard pharmacological test procedure.
(§2) Female Sprague Dawley CD rats, ovariectomized (ovx) or sham ovx, were obtained 1 day after surgery from Taconic Farm (weight range 240-275 g). They were housed 3 or 4 rats/cage in a room on a 14/10 (light/dark) schedule and provided with food (Purina 500 rat chow) and water ad libitum. Treatment for all studies began 1 day after the animals arrival and dosed either daily or once weekly as indicated for 6 weeks. A group of age matched sham operated rats not receiving any treatment served as an intact, estrogen replete control group for each study. All treatments were prepared in 1% tween 80 in normal saline at defined concentrations so that the treatment volume was 0.1 mL/100 g body weight.
(§3) One week after BMD evaluation the rats were euthanized by carbon dioxide suffocation. The uteri were removed and the weights taken. The following table summarizes the results that were obtained. The sham group was not ovariectomized; all other groups were ovariectomized. In the table below, bazedoxifene acetate is abbreviated as BZA.

[2] = tested on: ovariectomized (ovx) rats; experiment: Bone mineral density (BMD) in ovariectomized rats, daily or once weekly dosing; conditions: measured five weeks after initiation of treatment
From the text: as §1, §2
Five weeks after the initiation of treatment and one week prior to the termination of the study, each rat was evaluated for bone mineral density (BMD). The BMD's of the proximal tibiae (PT) and fourth lumbar vertabrae (L4) were measured in anesthetized rats using a dual energy X-ray absorptiometer (Eclipse XR-26, Norland Corp. Ft. Atkins, Wis.). The dual energy X-ray absorptiometer (DXA) measurements for each rat were performed as follows: Fifteen minutes prior to DXA measurements, the rat was anesthetized with an intraperitoneal injection of 100 mg/kg ketamine (Bristol Laboratories, Syracuse, N.Y.) and 0.75 mg/kg acepromazine (Aveco, Ft.Dodge, Iowa). The rat was placed on an acrylic table under the DXA scanner perpendicular to its path; the limbs were extended and secured with paper tape to the surface of the table. A preliminary scan was performed at a scan speed of 50 mm/second with a scan resolution of 1.5 mm×1.5 mm to determine the region of interest in PT and L4. Small subject software was employed at a scan speed of 10 mm/second with resolution of 0.5 mm X 0.5 mm for final BMD measurements. The software allows the operator to define a 1.5 cm wide area to cover the total length of L4. The BMDs for respective sites were computed by the software as a function of the attenuation of the dual beam (46.8 KeV and 80 KeV) X-ray generated by the source underneath the subject and the detector travelling along the defined area above the subject. The data for BMD values (expressed in g/cm2) and individual scans were stored for statistical analysis.

[3] = tested on: ovariectomized (ovx) rats; experiment: Uterine weight in ovariectomized rats, daily or once weekly dosing; conditions: 6 weeks
From the text: as §1, §2, §3

- Uterine Weight, Mean ± SEM ([3]; 0.3 mg/kg 1×/week): 131.3 ± 7.0 mg
- Uterine Weight, Mean ± SEM ([3]; 0.3 mg/kg 7×/week): 140.3 ± 6.3 mg
- Uterine Weight, Mean ± SEM ([3]; 1.0 mg/kg 1×/week): 149.9 ± 5.0 mg
- Uterine Weight, Mean ± SEM ([3]; 3.0 mg/kg 1×/week): 127.3 ± 10.9 mg
Compound: Cc1c(-c2ccc(O)cc2)n(Cc2ccc(OCCN3CCCCCC3)cc2)c2ccc(O)cc12 [BZA, 1-[4-(2-azepan-1-yl-ethoxy)-benzyl]-2-(4-hydroxy-phenyl)-3-methyl-1H-indol-5-ol]
- Δ Body Weight, Mean ± SEM ([1]; 0.3 mg/kg 1×/week): 80.5 ± 2.0 g
- Δ Body Weight, Mean ± SEM ([1]; 0.3 mg/kg 7×/week): 60 ± 5.6 g
- Δ Body Weight, Mean ± SEM ([1]; 1.0 mg/kg 1×/week): 71.3 ± 4.8 g
- Δ Body Weight, Mean ± SEM ([1]; 3.0 mg/kg 1×/week): 59.3 ± 7.0 g
- Total BMD, Mean ± SEM ([2]; 0.3 mg/kg 1×/week): 556.56 ± 20.5 mg/mL
- Trabecular BMD, Mean ± SEM ([2]; 0.3 mg/kg 1×/week): 361.93 ± 34.5 mg/mL
- Total BMD, Mean ± SEM ([2]; 0.3 mg/kg 7×/week): 604.33 ± 18.6 mg/mL
- Trabecular BMD, Mean ± SEM ([2]; 0.3 mg/kg 7×/week): 425.90 ± 26.3 mg/mL
- Total BMD, Mean ± SEM ([2]; 1.0 mg/kg 1×/week): 562.90 ± 7.7 mg/mL
- Trabecular BMD, Mean ± SEM ([2]; 1.0 mg/kg 1×/week): 353.03 ± 15.7 mg/mL
- Total BMD, Mean ± SEM ([2]; 3.0 mg/kg 1×/week): 589.36 ± 10.9 mg/mL
- Trabecular BMD, Mean ± SEM ([2]; 3.0 mg/kg 1×/week): 427.00 ± 10.0 mg/mL
